The source made the active and inactive calls. The calls are words filed in the database; no cut-off is given here.
Columns and labels:
[1] = target: T1, Tyrosine-protein phosphatase non-receptor type 1 (Homo sapiens, UniProt P18031); assay: Inhibition of recombinant human PTP1B using pNPP as substrate after 30 mins
T1 sequence (P18031 whole entry): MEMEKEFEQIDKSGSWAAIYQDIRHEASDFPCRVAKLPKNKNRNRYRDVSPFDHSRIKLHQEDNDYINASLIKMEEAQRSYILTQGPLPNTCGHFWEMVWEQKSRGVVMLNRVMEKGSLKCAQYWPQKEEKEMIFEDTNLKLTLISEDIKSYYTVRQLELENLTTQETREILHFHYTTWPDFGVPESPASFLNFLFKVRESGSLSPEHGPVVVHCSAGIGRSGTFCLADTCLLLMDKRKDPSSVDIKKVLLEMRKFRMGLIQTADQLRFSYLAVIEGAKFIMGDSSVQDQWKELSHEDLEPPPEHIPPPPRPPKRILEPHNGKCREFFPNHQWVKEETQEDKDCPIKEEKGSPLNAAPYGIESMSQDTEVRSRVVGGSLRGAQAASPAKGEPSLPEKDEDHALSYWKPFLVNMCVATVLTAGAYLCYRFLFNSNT

C2C12 = assay: Cytotoxicity against mouse C2C12 cells assessed as reduction in cell viability at 20 uM after 24 hrs by MTT assay; format: cell-based; conditions: c2c12, 24 h
[2] = target: T2, Tyrosine-protein phosphatase non-receptor type 1 (Mus musculus) (UniProt P35821); assay: Inhibition of PTP1B in differentiated mouse C2C12 cells assessed as upregulation of ACC phosphorylation at Ser-79 residue at 20 uM after 30 mins by Western blot assay
T2 sequence (whole entry): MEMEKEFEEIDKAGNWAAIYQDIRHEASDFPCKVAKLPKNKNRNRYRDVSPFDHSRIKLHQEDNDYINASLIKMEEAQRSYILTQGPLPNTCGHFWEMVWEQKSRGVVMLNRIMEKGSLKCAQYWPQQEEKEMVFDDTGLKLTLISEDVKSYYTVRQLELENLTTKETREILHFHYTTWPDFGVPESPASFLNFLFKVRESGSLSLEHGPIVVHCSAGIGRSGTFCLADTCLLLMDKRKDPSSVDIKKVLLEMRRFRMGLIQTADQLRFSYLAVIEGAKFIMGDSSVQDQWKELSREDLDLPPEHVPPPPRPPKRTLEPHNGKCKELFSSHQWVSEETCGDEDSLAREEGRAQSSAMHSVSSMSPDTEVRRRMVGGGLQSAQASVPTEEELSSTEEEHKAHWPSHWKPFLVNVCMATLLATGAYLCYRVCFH

[3] = target: T2, Tyrosine-protein phosphatase non-receptor type 1 (Mus musculus); assay: Inhibition of PTP1B in differentiated mouse C2C12 cells assessed as upregulation of AMPKalpha phosphorylation at Thr-172 residue at 20 uM after 3 hrs by Western blot assay
[4] = target: Mitogen-activated protein kinase 1 and 3 (ERK2 and ERK1) (Mus musculus) (UniProt P63085+Q63844); assay: Upregulation of ERK1/2 phosphorylation at p44 residue in differentiated mouse C2C12 cells at 10 to 20 uM preincubated for 2 hrs followed by insulin addition measured after 15 mins by Western blot assay
Chain of Mitogen-activated protein kinase 1 and 3 (ERK2 and ERK1) (Mus musculus) (P63085 whole entry, looked up): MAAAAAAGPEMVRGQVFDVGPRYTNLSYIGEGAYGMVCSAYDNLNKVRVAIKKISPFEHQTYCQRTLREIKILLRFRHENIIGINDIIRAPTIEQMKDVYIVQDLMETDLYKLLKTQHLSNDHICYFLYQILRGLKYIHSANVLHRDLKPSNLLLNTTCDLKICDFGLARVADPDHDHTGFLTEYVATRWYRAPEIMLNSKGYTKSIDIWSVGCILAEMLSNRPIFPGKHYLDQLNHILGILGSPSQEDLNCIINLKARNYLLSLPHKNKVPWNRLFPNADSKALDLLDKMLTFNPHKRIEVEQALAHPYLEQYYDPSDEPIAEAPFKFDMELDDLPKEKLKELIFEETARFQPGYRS
Chain of Mitogen-activated protein kinase 1 and 3 (ERK2 and ERK1) (Mus musculus) (Q63844 whole entry, looked up): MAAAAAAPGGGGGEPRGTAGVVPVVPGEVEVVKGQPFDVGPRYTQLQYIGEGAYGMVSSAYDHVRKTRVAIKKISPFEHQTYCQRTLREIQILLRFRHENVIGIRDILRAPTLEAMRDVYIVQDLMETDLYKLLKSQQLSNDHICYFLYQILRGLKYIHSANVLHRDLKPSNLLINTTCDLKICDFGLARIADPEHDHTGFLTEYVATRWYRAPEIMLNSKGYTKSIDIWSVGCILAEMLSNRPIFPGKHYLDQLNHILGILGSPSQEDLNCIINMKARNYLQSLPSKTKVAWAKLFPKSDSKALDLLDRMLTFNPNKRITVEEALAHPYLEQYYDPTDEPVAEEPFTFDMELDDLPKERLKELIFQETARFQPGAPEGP

[5] = target: T2, Tyrosine-protein phosphatase non-receptor type 1 (Mus musculus); assay: Inhibition of PTP1B in differentiated mouse 3T3L1 cells assessed as increase in glucose uptake at 5 to 20 uM after 1 hr by 2-NBDG staining based fluorescence assay
[6] = target: T2, Tyrosine-protein phosphatase non-receptor type 1 (Mus musculus); assay: Inhibition of PTP1B in differentiated mouse 3T3L1 cells assessed as increase in glucose uptake at 20 uM after 1 hr by […] staining based fluorescence microscopic assay
[7] = target: T2, Tyrosine-protein phosphatase non-receptor type 1 (Mus musculus); assay: Inhibition of PTP1B in differentiated mouse C2C12 cells assessed as upregulation of ACC phosphorylation at Ser-79 residue at 0.2 mM after 30 mins by Western blot assay

| SMILES | IC50 [1] [µM] | inhibition [2] | inhibition [3] | Activity [4] | inhibition [5] | inhibition [6] | inhibition [7] | Activity (C2C12) |
| --- | --- | --- | --- | --- | --- | --- | --- | --- |
| C=C(C)C1=CC[C@@]2(C)[C@H]1[C@H]1CC[C@@H]3[C@@]4(C)CC[C@H](OC(=O)CCCCCCCCCCCCCCC)C(C)(C)[C@@H]4CC[C@@]3(C)[C@]1(C)C[C@@H]2O | 23.6 |  |  |  | Active | Active |  | Non-Toxic |
| CC1(C)C[C@@H]2C[C@](C)(O)C(=O)C=C1O2 | 27 |  |  |  |  |  |  |  |

More lines, main results first:

| IC50 [1] [µM] | inhibition [2] | inhibition [3] | Activity [4] | inhibition [5] | inhibition [6] | inhibition [7] | SMILES | Activity (C2C12) |
| --- | --- | --- | --- | --- | --- | --- | --- | --- |
| 17.6 |  |  |  |  |  |  | CC1(C)[C@@H]2CC(=O)[C@@]1(C)C[C@@H]2O |  |
| 7.3 | Active | inactive | Active | Active | Active |  | C=C1CC/C=C(\COC(C)=O)CC[C@@H](C(C)C)[C@@H](O)[C@@H]1O | Non-Toxic |
|  |  |  |  |  |  | Active | NC(=O)c1ncn([C@@H]2O[C@H](CO)[C@@H](O)[C@H]2O)c1N |  |

— ChEMBL document CHEMBL4043257, “PTP1B inhibitors from the seeds of Iris sanguinea and their insulin mimetic activities via AMPK and ACC phosphorylation” (Bioorg Med Chem Lett, 2017)
